Assay results as given in patent US20250154138A1, “Small Molecule IL-17A Modulators” (BeiGene, Ltd., priority 2022, published 2025).

Biological target: human IL-17A / human IL-17RA (Homo sapiens (Human), UniProt Q16552)
Assay: Human IL-17A biochemical assay (HTRF, blocking of IL-17A binding to IL-17RA)
Conditions: 0.4 nM IL-17A, 0.3 nM IL-17RA, max compound concentration 10 uM
Protocol: Compounds disclosed herein were tested for blocking of human IL-17A (Cat: C774, novoprotein) protein with its receptor human IL-17RA (Cat: C153, novoprotein) in an assay based on Homogeneous Time Resolved Fluorescence. 0.4 nM recombinant human IL-17A protein was pre-incubated with a serial dilution of compounds disclosed herein (maximum concentration is 10 uM, 2.7-fold serially diluted, 10 points) at room temperature for 3 hours in an assay buffer containing 20 mM HEPES, pH 7.5, 50 mM NaCl, 0.1% BSA, 0.2 mM DTT, 0.005% Tween 20. Then 0.3 nM recombinant human IL-17RA was added to plate and further incubated at room temperature for 1 hour. After that Mab Anti-6His Tb cryptate Gold (Cat: 61HI2TLB, Cisbio Bioassays) and MAb Anti Human IgG-XL665 (Cat: 61HFCXLB, Cisbio Bioassays) were added to plate and further incubated at room temperature for 1 hour. The HTRF signals (ex337 nm, em620 nm/665 nm) were read on BMG PHERAstar FSX instrument. The inhibition percentage of human IL-17A interaction with its receptor human IL-17RA in presence of increasing concentrations of compounds was calculated based on the ratio of […]. The IC50 for each compound was derived from fitting the data to the four-parameter logistic equation by Dotmatics.

Chain of human IL-17A / human IL-17RA (Q16552 24-155): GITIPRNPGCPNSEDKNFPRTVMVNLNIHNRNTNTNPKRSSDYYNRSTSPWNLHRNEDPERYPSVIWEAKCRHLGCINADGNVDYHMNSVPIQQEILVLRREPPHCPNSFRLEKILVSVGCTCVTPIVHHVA

Row | Compound | IC50
1 | CNC(=O)C1(N2CC3(CC3)CNC2=O)Cc2ccc(NC(=O)[C@@H](NC(=O)c3cnc4c(C#N)cccn34)C3CCCCC3)cc2C1 (stereo partly drawn) [Example 180, 8-cyano-N-((1S)-1-cyclohexyl-2-((2-(methylcarbamoyl)-2-(6-oxo-5,7-diazaspiro[2.5]octan-5-yl)-2,3-dihydro-1H-inden-5-yl)amino)-2-oxoethyl)imidazo[1,2-a]pyridine-3-carboxamide] | 3680 nM
2 | CNC(=O)C1(N2C[C@@H](C(C)C)NC2=O)Cc2ccc(NC(=O)[C@@H](NC(=O)C3CC3)C3CCCCC3)cc2C1 (stereo partly drawn) [Example 49, 5-((S)-2-cyclohexyl-2-(cyclopropanecarboxamido)acetamido)-2-((R)-4-isopropyl-2-oxoimidazolidin-1-yl)-N-methyl-2,3-dihydro-1H-indene-2-carboxamide] | 1810 nM
3 | CNC(=O)C1(N2C[C@@H](C(C)C)NC2=O)Cc2ccc(NC(=O)[C@H](NC(=O)c3ccnn3C)C(C3CC3)C3CC3)cc2C1 (stereo partly drawn) [Example 93, N-((2R)-1,1-dicyclopropyl-3-((2-((R)-4-isopropyl-2-oxoimidazolidin-1-yl)-2-(methylcarbamoyl)-2,3-dihydro-1H-inden-5-yl)amino)-3-oxopropan-2-yl)-1-methyl-1H-pyrazole-5-carboxamide] | 830 nM
4 | CNC(=O)C1(N2CCC(C)NC2=O)Cc2ccc(NC(=O)[C@@H](NC(=O)c3ccnn3C)C3CCCCC3)cc2C1 (stereo partly drawn) [Example 95, N-((1S)-1-cyclohexyl-2-((2-(4-methyl-2-oxotetrahydropyrimidin-1(2H)-yl)-2-(methylcarbamoyl)-2,3-dihydro-1H-inden-5-yl)amino)-2-oxoethyl)-1-methyl-1H-pyrazole-5-carboxamide] | 4230 nM
5 | CNC(=O)C1(N2CC(CC(F)(F)F)NC2=O)Cc2ccc(NC(=O)[C@@H](NC(=O)c3ccnn3C)C3CCCCC3)cc2C1 (stereo partly drawn) [Example 73, N-((1S)-1-cyclohexyl-2-((2-(methylcarbamoyl)-2-(2-oxo-4-(2,2,2-trifluoroethyl)imidazolidin-1-yl)-2,3-dihydro-1H-inden-5-yl)amino)-2-oxoethyl)-1-methyl-1H-pyrazole-5-carboxamide] | 391 nM
6 | CNC(=O)C1(N2C[C@@H](C(C)C)NC2=O)Cc2ccc(NC(=O)C(NC(=O)c3ccnn3C)C3CCC(OC)CC3)cc2C1 (stereo partly drawn) [Example 72, N-(2-((2-((R)-4-isopropyl-2-oxoimidazolidin-1-yl)-2-(methylcarbamoyl)-2,3-dihydro-1H-inden-5-yl)amino)-1-(4-methoxycyclohexyl)-2-oxoethyl)-1-methyl-1H-pyrazole-5-carboxamide] | 3630 nM
7 | Cc1nonc1C(=O)N[C@H](C(=O)Nc1ccc2c(c1)CC(CN1C[C@@H](C(F)(F)F)NC1=O)O2)C(C1CC1)C1CC1 (stereo partly drawn) [Example 293, N-((2S)-1,1-dicyclopropyl-3-oxo-3-((2-(((S)-2-oxo-4-(trifluoromethyl)imidazolidin-1-yl)methyl)-2,3-dihydrobenzofuran-5-yl)amino)propan-2-yl)-4-methyl-1,2,5-oxadiazole-3-carboxamide] | > 10000 nM
8 | CNC(=O)C1(N2CC(CC3CCCCC3)NC2=O)Cc2ccc(NC(=O)[C@@H](NC(=O)c3ccnn3C)C3CCCCC3)cc2C1 (stereo partly drawn) [Example 88, N-((1S)-1-cyclohexyl-2-((2-(4-(cyclohexylmethyl)-2-oxoimidazolidin-1-yl)-2-(methylcarbamoyl)-2,3-dihydro-1H-inden-5-yl)amino)-2-oxoethyl)-1-methyl-1H-pyrazole-5-carboxamide] | 2060 nM
9 | Cc1nonc1C(=O)N[C@H](C(=O)Nc1ccc2c(c1)CC(C(=O)Nc1ccc(Cl)cc1Cl)(N1C[C@@H](C(C)C)NC1=O)C2)C(C1CC1)C1CC1 (stereo partly drawn) [Example 264, N-((2S)-1,1-dicyclopropyl-3-((2-((2,4-dichlorophenyl)carbamoyl)-2-((R)-4-isopropyl-2-oxoimidazolidin-1-yl)-2,3-dihydro-1H-inden-5-yl)amino)-3-oxopropan-2-yl)-4-methyl-1,2,5-oxadiazole-3-carboxamide] | 2540 nM
10 | CNC(=O)C1(N2CC(C3CCc4ccccc43)NC2=O)Cc2ccc(NC(=O)[C@@H](NC(=O)c3ccnn3C)C3CCCCC3)cc2C1 (stereo partly drawn) [Example 92, N-((1S)-1-cyclohexyl-2-((2-(4-(2,3-dihydro-1H-inden-1-yl)-2-oxoimidazolidin-1-yl)-2-(methylcarbamoyl)-2,3-dihydro-1H-inden-5-yl)amino)-2-oxoethyl)-1-methyl-1H-pyrazole-5-carboxamide] | 3040 nM
11 | CNC(=O)C1(N2CC(C)NC2=O)COc2ccc(NC(=O)[C@@H](NC(=O)c3ccnn3C)C3CCCCC3)cc2OC1 (stereo partly drawn) [Example 6, N-((1S)-1-cyclohexyl-2-((3-(4-methyl-2-oxoimidazolidin-1-yl)-3-(methylcarbamoyl)-3,4-dihydro-2H-benzo[b][1,4]dioxepin-7-yl)amino)-2-oxoethyl)-1-methyl-1H-pyrazole-5-carboxamide] | 17000 nM
12 | CNC(=O)C1(N2C[C@@H](CCc3ccccc3)NC2=O)Cc2ccc(NC(=O)[C@@H](NC(=O)c3ccnn3C)C3CCCCC3)cc2C1 (stereo partly drawn) [Example 96, N-((1S)-1-cyclohexyl-2-((2-(methylcarbamoyl)-2-((R)-2-oxo-4-phenethylimidazolidin-1-yl)-2,3-dihydro-1H-inden-5-yl)amino)-2-oxoethyl)-1-methyl-1H-pyrazole-5-carboxamide] | 2320 nM
13 | CNC(=O)C1(N2C[C@@H](C(C)C)NC2=O)Cc2ccc(NC(=O)[C@@H](NC(=O)c3ccnn3C)c3ccccc3)cc2C1 (stereo partly drawn) [Example 60, N-((1S)-2-((2-((R)-4-isopropyl-2-oxoimidazolidin-1-yl)-2-(methylcarbamoyl)-2,3-dihydro-1H-inden-5-yl)amino)-2-oxo-1-phenylethyl)-1-methyl-1H-pyrazole-5-carboxamide] | 2010 nM
14 | CNC(=O)C1(N2CC(C)NC2=O)CCc2ccc(NC(=O)[C@@H](NC(=O)c3ccnn3C)C3CCCCC3)cc2C1 (stereo partly drawn) [Example 10, N-((1S)-1-cyclohexyl-2-((7-(4-methyl-2-oxoimidazolidin-1-yl)-7-(methylcarbamoyl)-5,6,7,8-tetrahydronaphthalen-2-yl)amino)-2-oxoethyl)-1-methyl-1H-pyrazole-5-carboxamide] | 19000 nM
15 | CNC(=O)C1(N2C[C@@H](C(C)C)NC2=O)Cc2ccc(NC(=O)[C@@H](NC(=O)c3ccn(CCO)n3)C3CCCCC3)cc2C1 (stereo partly drawn) [Example 103, N-((1S)-1-cyclohexyl-2-((2-((R)-4-isopropyl-2-oxoimidazolidin-1-yl)-2-(methylcarbamoyl)-2,3-dihydro-1H-inden-5-yl)amino)-2-oxoethyl)-1-(2-hydroxyethyl)-1H-pyrazole-3-carboxamide] | 2700 nM
16 | CCOC(=O)N[C@H](C(=O)Nc1ccc2c(c1)CC(C(=O)NC)(N1C[C@@H](C(C)C)NC1=O)C2)C1CCCCC1 (stereo partly drawn) [Example 50, ethyl ((1S)-1-cyclohexyl-2-((2-((R)-4-isopropyl-2-oxoimidazolidin-1-yl)-2-(methylcarbamoyl)-2,3-dihydro-1H-inden-5-yl)amino)-2-oxoethyl)carbamate] | 1580 nM
17 | CNC(=O)C1(N2CC(C)(Cc3ccccc3)CNC2=O)Cc2ccc(NC(=O)[C@@H](NC(=O)c3ccnn3C)C3CCCCC3)cc2C1 (stereo partly drawn) [Example 109, N-((1S)-2-((2-(5-benzyl-5-methyl-2-oxotetrahydropyrimidin-1(2H)-yl)-2-(methylcarbamoyl)-2,3-dihydro-1H-inden-5-yl)amino)-1-cyclohexyl-2-oxoethyl)-1-methyl-1H-pyrazole-5-carboxamide] | 3450 nM
